The results in this text go back to publication PMC11884936, “MDC1 mediates Pellino recruitment to sites of DNA double-strand breaks” (Life Science Alliance, 2025).

Common to all, as to format: binding
For one test, the target named is T1, Pellino 1 FHA (Homo sapiens, UniProt Q96FA3).
T1 construct: PELI1 and 2 FHA domains (residues 13–273 and 15–275, respectively); GST (N, cleaved yes); made in house; host or cells: E. coli BL21 (DE3)
T1 sequence (Q96FA3 13-273): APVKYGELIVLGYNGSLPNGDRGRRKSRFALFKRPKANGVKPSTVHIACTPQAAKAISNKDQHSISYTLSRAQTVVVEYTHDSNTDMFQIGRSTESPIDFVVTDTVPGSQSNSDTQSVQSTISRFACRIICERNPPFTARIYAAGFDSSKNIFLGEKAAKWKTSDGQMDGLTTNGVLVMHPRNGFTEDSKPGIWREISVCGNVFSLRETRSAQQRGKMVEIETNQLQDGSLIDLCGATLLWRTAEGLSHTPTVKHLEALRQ
Description: Isothermal titration calorimetry of phosphopeptides with PELI1 FHA fragment. Conditions: for DG: ITC Gibbs free energy; for DG / DH / TDS: PELI1 FHA; for DG / DH / TDS / Kd: 25 mM HEPES pH 7.0, 200 mM NaCl, 1 mM TCEP; for DH: ITC change in enthalpy; for TDS: ITC temperature x change in entropy; for Kd: PELI1 FHA (residues 13–273) 16 μM in cell, peptide 160 μM in syringe, single-site binding model. As to the method: (§1) The regions corresponding to the PELI1 and 2 FHA domains (residues 13–273 and 15–275, respectively) were cloned into the pGEX-6P1 vector using BamHI/XhoI restriction sites and expressed as a 3C protease-cleavable N-terminal GST fusion protein in BL21 (DE3) cells (NEB). A 20 ml LB overnight culture was inoculated into 1L of LB medium supplemented with 100 μg/ml ampicillin to an OD600 of 0.05 and incubated at 37°C, 250 rpm until an OD600 of 0.6 was reached, whereupon expression was induced with 1 mM isopropyl ß-D-1-thiogalactopyranoside (IPTG) and overnight incubation at 18°C. Overnight cultures were harvested for 20 min at 4,000g, 4°C and resuspended in 20 ml lysis buffer (50 mM HEPES pH 7.5, 150 mM NaCl, 0.2 mg/ml lysozyme, 20 μg/ml DNase, and 1x complete, EDTA-free protease inhibitor cocktail tablet) before sonication-mediated cell lysis. Insoluble material was removed by centrifugation (21,000g, 20 min) and the GST-FHA fusion proteins were purified from the clarified lysate containers using 1 ml bed volume of pre-equilibrated Glutathione Sepharose 4B beads. After washing with 20 column volumes of Pellino FHA buffer (50 mM HEPES pH 7.5, 150 mM NaCl), the protein was cleaved overnight at 4°C from GST with 1% (vol/vol) GST-3C protease and the flow-through was further purified by gel filtration using a HiLoad 16/60 Superdex 200 pg (Cytiva) column. Purified Pellino FHA domains were concentrated to 50 mg/ml with a 10 kD molecular weight cut-off concentrator (Sartorius).
(§2) For ITC analysis protein and peptides were buffer exchanged into 25 mM HEPES pH 7.0, 200 mM NaCl, 1 mM TCEP. Titrations were carried out using a Microcal PEAQ-ITC (Malvern) using 13 injections of peptide at a typical syringe concentration of 160 μM (1 × 0.4 μl, 12 × 3.0 μl) and FHA concentration of 16 μM in the cell. Data were analyzed with a single-site binding model using Microcal PEAQ-ITC software. Peptide sequences are: MDC1 pT699–AYDLQApTQCFA, MDC1-pT719–[…], MDC1-pT752–AYEVLApTQPFC, MDC1-pT765–AYEDSEpTQPFD, IRAK-pT141(+3Y)–AYSSASpTFLYP, γH2AX–GGKATQApSQEY. All peptides were synthesises with N-terminal acetylation and a C-terminal amide. MDC1 pT699 and pT719 were made with alanine substitutions at the pT+4 position (Leu and Met, respectively) to aid solubility and monodispersity.

The target in another test is T2, Pellino 2 FHA (Homo sapiens, UniProt Q9HAT8).
T2 construct: PELI1 and 2 FHA domains (residues 13–273 and 15–275, respectively); GST (N, cleaved yes); made in house; host or cells: E. coli BL21 (DE3)
T2 sequence (Q9HAT8 15-275): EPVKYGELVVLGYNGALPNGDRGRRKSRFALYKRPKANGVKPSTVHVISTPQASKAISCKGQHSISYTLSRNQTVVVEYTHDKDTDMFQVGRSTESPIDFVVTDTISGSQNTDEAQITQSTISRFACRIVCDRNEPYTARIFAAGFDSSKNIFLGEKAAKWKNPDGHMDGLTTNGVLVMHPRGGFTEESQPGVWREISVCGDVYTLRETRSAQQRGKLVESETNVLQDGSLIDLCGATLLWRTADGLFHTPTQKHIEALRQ
Description: Isothermal titration calorimetry of phosphopeptides with PELI2 FHA fragment. Particulars: for DG: ITC Gibbs free energy; for DG / DH / TDS: PELI2 FHA; for DH: ITC change in enthalpy; for TDS: ITC temperature x change in entropy. Here is the method:
as §1, §2

Another test has as its target T3, MDC1 BRCT-r (Homo sapiens, UniProt Q14676).
T3 sequence (Q14676 1883-2089 limits assumed): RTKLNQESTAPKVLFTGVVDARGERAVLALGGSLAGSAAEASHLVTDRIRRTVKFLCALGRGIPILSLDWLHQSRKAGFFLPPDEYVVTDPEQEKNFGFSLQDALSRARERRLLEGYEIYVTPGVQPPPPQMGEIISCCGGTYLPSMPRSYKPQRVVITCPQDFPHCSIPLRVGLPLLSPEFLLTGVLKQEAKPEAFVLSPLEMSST
Description: Isothermal titration calorimetry of γH2AX phosphopeptide with MDC1 BRCT-repeat fragment. As to the method: as §2

[1] abbreviates: 25 mM HEPES pH 7.0, 200 mM NaCl, 1 mM TCEP.

“Also recorded” adds a separate entry of the source. Read-outs that look alike come from different tables or passages of the source. Square brackets hold non-standard residues; d marks the D form. Peptide text beside a SMILES is read from it. pT = C[C@@H](OP(=O)(O)O)[C@H](N)C(=O)O; pS = N[C@@H](COP(=O)(O)O)C(=O)O

Take `CC(=O)N[C@@H](C)C(=O)N[C@@H](Cc1ccc(O)cc1)C(=O)N[C@@H](CC(=O)O)C(=O)N[C@@H](CC(C)C)C(=O)N[C@@H](CCC(N)=O)C(=O)N[C@@H](C)C(=O)N[C@H](C(=O)N[C@@H](CCC(N)=O)C(=O)N[C@@H](CS)C(=O)N[C@@H](Cc1ccccc1)C(=O)N[C@@H](C)C(N)=O)[C@@H](C)OP(=O)(O)O` [MDC1-pT699] (Ac-AYDLQA[pT]QCFA-NH2): at Pellino 1 FHA, the DG is -7.77 kcal/mol, the DH was -18.5 kcal/mol and the TDS was -10.7 kcal/mol. On Pellino 2 FHA (setting [1]), this compound came in with a DG of -8.13 kcal/mol, a DH of -19.9 kcal/mol and a TDS of -11.8 kcal/mol.

In the case of `CC(=O)N[C@@H](C)C(=O)N[C@@H](Cc1ccc(O)cc1)C(=O)N[C@@H](CCC(=O)O)C(=O)N[C@@H](CC(=O)O)C(=O)N[C@@H](CCC(=O)O)C(=O)N1CCC[C@H]1C(=O)N[C@H](C(=O)N[C@@H](CCC(N)=O)C(=O)N[C@@H](C)C(=O)N[C@@H](Cc1ccccc1)C(=O)N[C@@H](C)C(N)=O)[C@@H](C)OP(=O)(O)O` [MDC1-pT719] (Ac-AYEDEP[pT]QAFA-NH2), on Pellino 1 FHA, the DG was -8.13 kcal/mol, the DH is -21.8 kcal/mol and the TDS was -13.7 kcal/mol. Further, the dissociation constant (Kd) at Pellino 1 FHA (ITC, read-out: Kd) came to 1140 nM. On Pellino 2 FHA (setting [1]), the DG was -8.08 kcal/mol, the DH is -34.7 kcal/mol and the TDS is -26.5 kcal/mol.

At Pellino 1 FHA, `CC(=O)N[C@@H](C)C(=O)N[C@@H](Cc1ccc(O)cc1)C(=O)N[C@@H](CCC(=O)O)C(=O)N[C@H](C(=O)N[C@@H](CC(C)C)C(=O)N[C@@H](C)C(=O)N[C@H](C(=O)N[C@@H](CCC(N)=O)C(=O)N1CCC[C@H]1C(=O)N[C@@H](Cc1ccccc1)C(=O)N[C@@H](CS)C(N)=O)[C@@H](C)OP(=O)(O)O)C(C)C` [MDC1-pT752] (Ac-AYEVLA[pT]QPFC-NH2) displayed a DG of -8.1 kcal/mol, a DH of -18.5 kcal/mol and a TDS of -10.3 kcal/mol. Besides, the Kd at Pellino 1 FHA (ITC, read-out: Kd) came to 1140 nM. On Pellino 2 FHA (setting [1]), the DG was -8.15 kcal/mol, the DH is -28.2 kcal/mol and the TDS was -20 kcal/mol.

For `CC(=O)N[C@@H](C)C(=O)N[C@@H](Cc1ccc(O)cc1)C(=O)N[C@@H](CCC(=O)O)C(=O)N[C@@H](CC(=O)O)C(=O)N[C@@H](CO)C(=O)N[C@@H](CCC(=O)O)C(=O)N[C@H](C(=O)N[C@@H](CCC(N)=O)C(=O)N1CCC[C@H]1C(=O)N[C@@H](Cc1ccccc1)C(=O)N[C@@H](CC(=O)O)C(N)=O)[C@@H](C)OP(=O)(O)O` [MDC1-pT765] (Ac-AYEDSE[pT]QPFD-NH2), at Pellino 1 FHA, the DG is -9.08 kcal/mol, the DH was -22 kcal/mol and the TDS is -12.9 kcal/mol. Moreover, the dissociation constant Kd on Pellino 1 FHA (ITC, read-out: Kd) worked out at 230 nM. The “tighter affinity than the other TQXF phosphopeptides” value at Pellino 1 FHA (ITC, compared with the other MDC1 TQXF phosphopeptides) was 5–10 fold. At Pellino 2 FHA (setting [1]), the DG was -8.77 kcal/mol, the DH was -32.7 kcal/mol and the TDS was -23.9 kcal/mol.

On to `CC(=O)NCC(=O)NCC(=O)N[C@@H](CCCCN)C(=O)N[C@@H](C)C(=O)N[C@H](C(=O)N[C@@H](CCC(N)=O)C(=O)N[C@@H](C)C(=O)N[C@@H](COP(=O)(O)O)C(=O)N[C@@H](CCC(N)=O)C(=O)N[C@@H](CCC(=O)O)C(=O)N[C@@H](Cc1ccc(O)cc1)C(N)=O)[C@@H](C)O` [Peptide H2AX-pS139, reference compound] (Ac-GGKATQA[pS]QEY-NH2), for which the “interaction detected by ITC (in words)” value on Pellino 1 FHA (ITC, N-terminal PELI1 fragment (13–273), listed as γH2AX phosphopeptide) is “did not detect any interaction; also recorded: no detectable interactions”; at Pellino 2 FHA (ITC, N-terminal PELI2 fragment, listed as γH2AX phosphopeptide), “did not detect any interaction; also recorded: no detectable interactions”; on MDC1 BRCT-r (ITC, purified MDC1 BRCT-repeat fragment, listed as γH2AX phosphopeptide), “bound tightly; also recorded: tight binding”. For the same compound, the Kd entry on Pellino 1 FHA (ITC) is “N.D.B”; on Pellino 2 FHA (ITC, PELI2 FHA (residues 15–275) 16 μM in cell, peptide 160 μM in syringe, 25 mM HEPES pH 7.0, 200 mM NaCl, 1 mM TCEP, single-site binding model), “N.D.B”; on MDC1 BRCT-r (ITC, MDC1 BRCT-repeat fragment, 25 mM HEPES pH 7.0, 200 mM NaCl, 1 mM TCEP, single-site binding model), 850 nM. This compound also had a DG on MDC1 BRCT-r (ITC Gibbs free energy, MDC1 BRCT-r) of -8.27 kcal/mol. Also, on MDC1 BRCT-r (ITC change in enthalpy, MDC1 BRCT-r), the DH is -13.9 kcal/mol. At MDC1 BRCT-r (ITC temperature x change in entropy, MDC1 BRCT-r), this compound registered a TDS of -5.62 kcal/mol.
